According to patent US20250057844A1, “METHODS OF TREATING NEOPLASTIC DISEASES” (SILLAJEN, INC., priority 2021, published 2025):
Like-named read-outs stand apart in the source and are kept apart here.

Assay: Third PK study: intravenous dose on day 1 or on day 6 after 5 days oral dosing
Assay type: in vivo, female Swiss Albino mice
Details: for half-life / clearance / Vd / AUC(0-inf) / AUC(0-t) / C0: female, Swiss Albino, mouse, plasma, iv, 5 mg/kg
Experimental: In a third study female Swiss Albino mice were administered intravenously (bolus, 5 mL/kg) dose of 5 mg/kg of the compound of formula (I). Group 1 (9 mice) received a single i.v. dose administration on day 1. Group 2 (9 mice) received daily oral administration of 10 mg/kg of the compound of formula (I) from day 1 to day 5 following by a single i.v. dose administration of 5 mg/kg of the compound of formula (I) on day 6. PK samples were collected on day 1 for group 1 and on day 6 for group 2. The formulation vehicle consisted of ethanol, PEG 400 and citric acid 20 mM (10/10/80; v/v/v) in water for injection (WFI). Blood samples were taken pre-dose and at 0.083, 0.25, 0.5, 1, 2, 6, 12, and 24 h post-dose administration (3 mice/time point). In each of the three studies blood was collected via the sephanous vein into K2-EDTA tubes kept on ice until centrifugation at 4° C. Plasma was stored at ap-proximately-80° C. […] PK parameters were calculated using Phoenix® WinNonLin 6.4. PK analysis was based on sparse sampling.

[1] = Group 1, Day 1: single 5 mg/kg i.v., female mice
[2] = Group 2, Day 6: 5 mg/kg i.v. after 10 mg/kg oral daily for 5 days, female mice

In the case of `COc1cc(N2CCNCC2)ccc1Nc1ncc2c(n1)-n1ccc(C(=O)Nc3c(C)cccc3C)c1CC2` [compound of formula (I)], the “concentrations at 24 hours lower than C0” value (5 mg/kg i.v.) was “more than 100 fold”, the “maximum AUCinf extrapolation” value (5 mg/kg i.v.) was no more than 2.54% and the AUC_% extrapolated [1] was 2.54%. The Clast [1] was 0.0054 µg/mL, the AUC_% extrapolated [2] was 1.65% and the Clast [2] was 0.00429 µg/mL. For the same molecule, the half-life (5 mg/kg i.v., both groups, read-out: half-life) was 4 to 4.7 h, the clearance (5 mg/kg i.v., both groups, read-out: plasma clearance) was 3.32 to 3.47 L/h/kg and the Vd (5 mg/kg i.v., both groups, read-out: volume of distribution) was 15.4 to 19 L/kg. It also gave an AUC(0-inf) [1] of 1.44 µg·h/mL, an AUC(0-t) [1] of 1.4 µg·h/mL and a C0 [1] of 0.636 µg/mL. It also gave a clearance (Group 1, Day 1: single 5 mg/kg i.v., female mice, read-out: CL) of 3.47 L/h/kg, a half-life (Group 1, Day 1: single 5 mg/kg i.v., female mice, read-out: T1/2 (converted)) of 4.7 h and a Vd (Group 1, Day 1: single 5 mg/kg i.v., female mice, read-out: Vss) of 19 L/kg. It also gave an AUC(0-inf) [2] of 1.5 µg·h/mL, an AUC(0-t) [2] of 1.48 µg·h/mL and a C0 [2] of 0.627 µg/mL. For the same molecule, the clearance (Group 2, Day 6: 5 mg/kg i.v. after 10 mg/kg oral daily for 5 days, female mice, read-out: CL) was 3.32 L/h/kg, the half-life (Group 2, Day 6: 5 mg/kg i.v. after 10 mg/kg oral daily for 5 days, female mice, read-out: T1/2 (converted)) was 4 h and the Vd (Group 2, Day 6: 5 mg/kg i.v. after 10 mg/kg oral daily for 5 days, female mice, read-out: Vss) was 15.4 L/kg.
